Data as given in ChEMBL document CHEMBL1156482, “Molecular mechanism of action of monocyclam versus bicyclam non-peptide antagonists in the CXCR4 chemokine receptor” (J Biol Chem, 2007).
pIC50, pKi: −log10 of the molar value. Active and inactive are the calls of the source. No cut-off for these calls is given here.

Key:
[1] = tested on: Human immunodeficiency virus 1; test: Antiviral activity against HIV1 NL43 infected in U87.CD4 cells expressing human CXCR4 D262N mutant; format: functional, organism-based; details: Human immunodeficiency virus 1, NL43, U87.CD4
[2] = tested on: C-X-C chemokine receptor type 4 (Homo sapiens), P61073 [H281A]; test: Antagonist activity at human CXCR4 H281A mutant expressed in U87.CD4 cells assessed as inhibition of CXCL12-induced calcium mobilization; format: functional, cell-based
[3] = tested on: Human immunodeficiency virus 1; test: Antiviral activity against HIV1 NDK infected in U87.CD4 cells expressing human CXCR4 D171N mutant; format: functional, organism-based; details: Human immunodeficiency virus 1, NDK
[4] = tested on: C-X-C chemokine receptor type 4 (Homo sapiens), P61073 [H281A]; test: (§1) Displacement of [125I]12G5 antibody from transmembrane domain 7 of human CXCR4 H281A mutant expressed in COS7 cells; format: cell-based; details: COS-7
[5] = target: C-X-C chemokine receptor type 4 (Homo sapiens, UniProt P61073, H281A); test: as §1; format: cell-based, COS-7
[6] = tested on: Human immunodeficiency virus 1; test: Antiviral activity against HIV1 clinical isolate 10 infected U87.CD4 cells expressing human CXCR4 E288A mutant; format: functional, organism-based; details: Human immunodeficiency virus 1, U87.CD4
[7] = tested on: Human immunodeficiency virus 1; test: Antiviral activity against HIV1 clinical isolate 10 infected in U87.CD4 cells expressing human CXCR4 H281A mutant; format: functional, organism-based; details: Human immunodeficiency virus 1, U87.CD4
[8] = tested on: C-X-C chemokine receptor type 4 (Homo sapiens), P61073 [F172A]; test: (§2) Antagonist activity at human CXCR4 F172A mutant expressed in COS7 cells coexpressing G protein Gqi4myr assessed as inhibition of CXCL12-induced phosphatidylinositol turnover; format: functional, cell-based; details: COS-7
[9] = target: C-X-C chemokine receptor type 4 (Homo sapiens, UniProt P61073, F172A); test: as §2; format: functional, cell-based, COS-7
[10] = target: C-X-C chemokine receptor type 4 (Homo sapiens, UniProt P61073); test: Antagonist activity at human wild type CXCR4 expressed in COS7 cells coexpressing G protein Gqi4myr assessed as inhibition of CXCL12-induced phosphatidylinositol turnover; format: functional, cell-based, COS-7
[11] = tested on: C-X-C chemokine receptor type 4 (Homo sapiens), P61073 [T287A]; test: (§3) Antagonist activity at human CXCR4 T287A mutant expressed in COS7 cells coexpressing G protein Gqi4myr assessed as inhibition of CXCL12-induced phosphatidylinositol turnover; format: functional, cell-based; details: COS-7
[12] = target: T1, C-X-C chemokine receptor type 4 (Homo sapiens, UniProt P61073, T287A); test: as §3; format: functional, cell-based, COS-7
[13] = tested on: Human immunodeficiency virus 1; test: Antiviral activity against HIV1 NL43 infected in U87.CD4 cells expressing human CXCR4 D171N/D262N mutant; format: functional, organism-based
[14] = target: C-X-C chemokine receptor type 4 (Homo sapiens, UniProt P61073, I284A); test: (§4) Antagonist activity at human CXCR4 I284A mutant expressed in COS7 cells coexpressing G protein Gqi4myr assessed as inhibition of CXCL12-induced phosphatidylinositol turnover; format: functional, cell-based, COS-7
[15] = tested on: C-X-C chemokine receptor type 4 (Homo sapiens), P61073 [I284A]; test: as §4; format: functional, cell-based; details: COS-7
[16] = tested on: C-X-C chemokine receptor type 4 (Homo sapiens), P61073 [I259A]; test: (§5) Antagonist activity at transmembrane domain 6 of human CXCR4 I259A mutant expressed in COS7 cells coexpressing G protein Gqi4myr assessed as inhibition of CXCL12-induced phosphatidylinositol turnover; format: functional, cell-based; details: COS-7
[17] = target: C-X-C chemokine receptor type 4 (Homo sapiens, UniProt P61073, I259A); test: as §5; format: functional, cell-based, COS-7
[18] = tested on: C-X-C chemokine receptor type 4 (Homo sapiens), P61073 [H203A]; test: (§6) Antagonist activity at human CXCR4 H203A mutant expressed in COS7 cells coexpressing G protein Gqi4myr assessed as inhibition of CXCL12-induced phosphatidylinositol turnover; format: functional, cell-based; details: COS-7
[19] = target: T2, C-X-C chemokine receptor type 4 (Homo sapiens, UniProt P61073, H203A); test: as §6; format: functional, cell-based, COS-7
[20] = tested on: Human immunodeficiency virus 1; test: Antiviral activity against HIV1 NL43 infected in U87.CD4 cells expressing human CXCR4 H281A mutant; format: functional, organism-based; details: Human immunodeficiency virus 1, NL43, U87.CD4
[21] = target: C-X-C chemokine receptor type 4 (Homo sapiens, UniProt P61073, Q200A); test: (§7) Antagonist activity at human CXCR4 Q200A mutant expressed in COS7 cells coexpressing G protein Gqi4myr assessed as inhibition of CXCL12-induced phosphatidylinositol turnover; format: functional, cell-based, COS-7
[22] = tested on: C-X-C chemokine receptor type 4 (Homo sapiens), P61073 [Q200A]; test: as §7; format: functional, cell-based; details: COS-7
[23] = tested on: C-X-C chemokine receptor type 4 (Homo sapiens), P61073 [N176A]; test: (§8) Displacement of [125I]12G5 antibody from extracellular loop 2 of human CXCR4 N176A mutant expressed in COS7 cells; format: cell-based; details: COS-7
[24] = target: C-X-C chemokine receptor type 4 (Homo sapiens, UniProt P61073, N176A); test: as §8; format: cell-based, COS-7
[25] = tested on: C-X-C chemokine receptor type 4 (Homo sapiens), P61073 [A175F]; test: (§9) Antagonist activity at human CXCR4 A175F mutant expressed in COS7 cells coexpressing G protein Gqi4myr assessed as inhibition of CXCL12-induced phosphatidylinositol turnover; format: functional, cell-based; details: COS-7
[26] = target: C-X-C chemokine receptor type 4 (Homo sapiens, UniProt P61073, A175F); test: as §9; format: functional, cell-based, COS-7
[27] = target: C-X-C chemokine receptor type 4 (Homo sapiens, UniProt P61073, D171N); test: (§10) Antagonist activity at human CXCR4 D171N mutant expressed in COS7 cells coexpressing G protein Gqi4myr assessed as inhibition of CXCL12-induced phosphatidylinositol turnover; format: functional, cell-based, COS-7
[28] = tested on: C-X-C chemokine receptor type 4 (Homo sapiens), P61073 [D171N]; test: as §10; format: functional, cell-based; details: COS-7
[29] = tested on: C-X-C chemokine receptor type 4 (Homo sapiens), P61073 [H203A]; test: (§11) Displacement of [125I]12G5 antibody from transmembrane domain 5 of human CXCR4 H203A mutant expressed in COS7 cells; format: cell-based; details: COS-7
[30] = target: T2, C-X-C chemokine receptor type 4; test: as §11; format: cell-based, COS-7
[31] = target: C-X-C chemokine receptor type 4 (Homo sapiens, UniProt P61073, F174A); test: (§12) Displacement of [125I]12G5 antibody from transmembrane domain 4 of human CXCR4 F174A mutant expressed in COS7 cells; format: cell-based, COS-7
[32] = tested on: C-X-C chemokine receptor type 4 (Homo sapiens), P61073 [F174A]; test: as §12; format: cell-based; details: COS-7
[33] = target: C-X-C chemokine receptor type 4 (Homo sapiens, UniProt P61073, I259W); test: (§13) Displacement of [125I]12G5 antibody from transmembrane domain 6 of human CXCR4 I259W mutant expressed in COS7 cells; format: cell-based, COS-7
[34] = tested on: C-X-C chemokine receptor type 4 (Homo sapiens), P61073 [I259W]; test: as §13; format: cell-based; details: COS-7
[35] = tested on: C-X-C chemokine receptor type 4 (Homo sapiens), P61073 [Y256A]; test: (§14) Displacement of [125I]12G5 antibody from transmembrane domain 6 of human CXCR4 Y256A mutant expressed in COS7 cells; format: cell-based; details: COS-7
[36] = target: C-X-C chemokine receptor type 4 (Homo sapiens, UniProt P61073, Y256A); test: as §14; format: cell-based, COS-7
[37] = tested on: C-X-C chemokine receptor type 4 (Homo sapiens), P61073 [T287A]; test: (§15) Displacement of [125I]12G5 antibody from transmembrane domain 7 of human CXCR4 T287A mutant expressed in COS7 cells; format: cell-based; details: COS-7
[38] = target: T1, C-X-C chemokine receptor type 4; test: as §15; format: cell-based, COS-7
[39] = target: C-X-C chemokine receptor type 4 (Homo sapiens, UniProt P61073, H113A); test: (§16) Antagonist activity at human CXCR4 H113A mutant expressed in COS7 cells coexpressing G protein Gqi4myr assessed as inhibition of CXCL12-induced phosphatidylinositol turnover; format: functional, cell-based, COS-7
[40] = tested on: C-X-C chemokine receptor type 4 (Homo sapiens), P61073 [H113A]; test: as §16; format: functional, cell-based; details: COS-7
Chain of C-X-C chemokine receptor type 4 (Homo sapiens), P61073 [H113A] (P61073 whole entry H113A): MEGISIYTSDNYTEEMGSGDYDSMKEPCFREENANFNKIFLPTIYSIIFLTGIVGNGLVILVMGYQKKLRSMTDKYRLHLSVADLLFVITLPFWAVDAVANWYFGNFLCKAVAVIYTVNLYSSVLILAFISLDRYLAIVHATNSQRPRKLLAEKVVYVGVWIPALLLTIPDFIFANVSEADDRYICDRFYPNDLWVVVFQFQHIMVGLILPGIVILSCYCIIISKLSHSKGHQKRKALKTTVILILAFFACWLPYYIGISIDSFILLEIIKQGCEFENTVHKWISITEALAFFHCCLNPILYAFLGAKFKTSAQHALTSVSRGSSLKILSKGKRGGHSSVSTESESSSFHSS

Chain of C-X-C chemokine receptor type 4 (Homo sapiens), P61073 [H281A] (P61073 whole entry H281A, the tested form may be a part): as the sequence (P61073 whole entry H113A) above, with A113H, H281A counted along it
Chain of C-X-C chemokine receptor type 4 (Homo sapiens, UniProt P61073) (P61073 whole entry): as the sequence (P61073 whole entry H113A) above, with A113H counted along it
Chain of C-X-C chemokine receptor type 4 (Homo sapiens), P61073 [T287A] (P61073 whole entry T287A, the tested form may be a part): as the sequence (P61073 whole entry H113A) above, with A113H, T287A counted along it
T1 sequence (P61073 whole entry T287A): as the sequence (P61073 whole entry H113A) above, with A113H, T287A counted along it
Chain of C-X-C chemokine receptor type 4 (Homo sapiens), P61073 [H203A] (P61073 whole entry H203A, the tested form may be a part): as the sequence (P61073 whole entry H113A) above, with A113H, H203A counted along it
T2 sequence (P61073 whole entry H203A): as the sequence (P61073 whole entry H113A) above, with A113H, H203A counted along it
Chain of C-X-C chemokine receptor type 4 (Homo sapiens), P61073 [I284A] (P61073 whole entry I284A, the tested form may be a part): as the sequence (P61073 whole entry H113A) above, with A113H, I284A counted along it
Chain of C-X-C chemokine receptor type 4 (Homo sapiens, UniProt P61073, I284A) (P61073 whole entry I284A): as the sequence (P61073 whole entry H113A) above, with A113H, I284A counted along it
Chain of C-X-C chemokine receptor type 4 (Homo sapiens, UniProt P61073, H281A) (P61073 whole entry H281A): as the sequence (P61073 whole entry H113A) above, with A113H, H281A counted along it
Chain of C-X-C chemokine receptor type 4 (Homo sapiens), P61073 [F174A] (P61073 whole entry F174A, the tested form may be a part): as the sequence (P61073 whole entry H113A) above, with A113H, F174A counted along it
Chain of C-X-C chemokine receptor type 4 (Homo sapiens, UniProt P61073, F174A) (P61073 whole entry F174A, the tested form may be a part): as the sequence (P61073 whole entry H113A) above, with A113H, F174A counted along it
Chain of C-X-C chemokine receptor type 4 (Homo sapiens, UniProt P61073, H113A) (P61073 whole entry H113A): as the sequence (P61073 whole entry H113A) above

In the case of `c1ccc(CNCc2ccc(CN3CCCNCCNCCCNCC3)cc2)nc1`, the pIC50 [1] was 7.42, the Activity [2] was “inactive” and the pIC50 [3] was 4.66. It also gave a logKi [4] of -3.29, a pKi [5] of 3.28 and a pIC50 [6] of 5.81. For the same molecule, the pIC50 [7] was 5.71, the logIC50 [8] was -7.93 and the pKi [9] was 8.00. For the same molecule, the pKi [10] was 8.00, the logIC50 ([10]; COS-7) was -8.01 and the logIC50 [11] was -8.1. The pKi [12] was 8.00, the Activity [13] was “Active” and the pKi [14] was 7.52. For the same molecule, the logIC50 [15] was -7.5, the logIC50 [16] was -7.55 and the pKi [17] was 7.52. It also gave a logIC50 [18] of -7.43, a pKi [19] of 7.40 and a pIC50 [20] of less than 5.96. For the same molecule, the pKi [21] was 6.82, the logIC50 [22] was -6.84 and the logKi [23] was -6.98. It also gave a pKi [24] of 7.00, a logIC50 [25] of -5.89 and a pKi [26] of 5.89. It also gave a pKi [27] of 6.74, a logIC50 [28] of -6.76 and a logKi [29] of -6.35. For the same molecule, the pKi [30] was 6.36, the pKi [31] was 6.01 and the logKi [32] was -6.01. The pKi [33] was 4.74, the logKi [34] was -4.75 and the logKi [35] was -6.5. The pKi [36] was 6.49, the logKi [37] was -5.71 and the pKi [38] was 5.70. The pKi [39] was 6.89 and the logIC50 [40] was -6.89.
